Columns and labels:
[1] = tested on: peptides bound to the soluble HLA-B*1502-β2-microglobulin complex; assay: Analysis of HLA-B-bound drug-modified peptides by liquid chromatography-tandem mass spectrometry (C1R-HLA-B*1502 clone treated with CBZ); set-up: species or system human; settings: C1R-HLA-B*1502 culture, 50 μg/mL for 48 hours; LC-tandem MS of <3-kDa fraction
autologous B-LCL cells = assay: 51Cr-release cytotoxicity assay, CBZ-specific CD8+ T cells against drug-pulsed autologous B-LCL; assay type: cell-based, human; settings: B-LCL pulsed with 25 μg/ml drug overnight at 37° C. and washed out before the cytotoxicity assay; FIG. 3
Protocol: (§1) PBMC were isolated by the density-gradient Ficoll-Paque method according to the manufacturer's instructions (GE Healthcare Company, Piscataway, N.J., USA). […] After 3˜4 times of restimulation, CD8^+ T cells were sorted out for further functional assays. T cells were cultured with RPMI-HS medium consisted of RPMI 1640 supplemented with 10% heat-inactivated human type AB serum (Labquid Inc, Ontario, Calif.) and 50 U/ml IL-2 (R&D Systems, Minneapolis, Minn., USA). EBV-transformed B-cell lines (B-LCL) were generated by transforming the donor's PBMCs with supernatant from the EBV-producing cell lines B9-85.
Irradiated APCs (10^3) and T cells (10^4) were incubated with a test compound for 48 hours, and the proliferation of T cells was measured by incorporation of [^3H] thymidine. For fixation assay, autologous B-LCLs were pretreated with 0.05% paraformaldehyde for 30 s. For pulsing experiments, drugs were preincubated with B-LCLs overnight. […]
B-LCLs, preincubated with IFN-γ (R&D Systems, Minneapolis, Minn., USA) overnight, were first incubated with ^51Cr (Perkin Elmer, Waltham, Mass., USA) for 1 hr at 37° C. […] Radioactivity in the supernatant from each wells was measured by a Topcount (Packard Biosciences, Meriden, Conn., USA). The percentage of specific lysis was calculated as follows: (^51Cr release in the test well−spontaneous ^51Cr release)/(maximum ^51Cr release−spontaneous ^51Cr release).

[2] = tested on: CBZ-specific CD8+ T cells; assay: [3H] thymidine incorporation assay, T cell proliferation with fixed and non-fixed B-LCLs; assay type: cell-based, human; settings: fixed and unfixed autologous B-LCL; FIG. 4
Protocol: as §1
Irradiated APCs (10^3) and T cells (10^4) were incubated with a test compound for 48 hours, and the proliferation of T cells was measured by incorporation of [^3H] thymidine. For fixation assay, autologous B-LCLs were pretreated with 0.05% paraformaldehyde for 30 s. For pulsing experiments, drugs were preincubated with B-LCLs overnight. B-LCLs were washed repeatedly to remove noncovalently bound drug, and then incubated with T cells.

HLA-B*1501 = molecular target: T1, HLA-B*1501 (Homo sapiens, UniProt P01889, A329T/A93T/A95T/C349S/D201E/D98Y/E187L/E204Q/E69M/E70A/K202T/N87E/Q94N/R155S/R180W/S121R/S35A/S48A/V306I/V36M/Y140S/Y91S); assay: Surface plasmon resonance (SPR) binding to soluble HLA-B*1501; settings: for binding to other HLA-B molecules (SPR): HLA-B*1501: at therapeutic concentrations
T1 construct: Complexes containing soluble HLA-B*1501 or 1503 and β2-microglobulin were prepared following the same procedure described above; made in house

HLA-B*1503 = HLA-B*1503 (Homo sapiens, UniProt P01889, A329T/A93T/A95T/C349S/D201E/D98Y/E187L/E204Q/K202T/N87E/Q94N/R155S/R180L/S121R/S35A/V306I/V36M/Y140S/Y91S); assay: Surface plasmon resonance (SPR) binding to soluble HLA-B*1503; settings: for binding to other HLA-B molecules (SPR): HLA-B*1503: at therapeutic concentrations
HLA-B*4001 = HLA-B*4001 (Homo sapiens, UniProt P01889, A65T/A93T/A95T/D138N/D98Y/E176V/E69K/N87E/Q56L/Q94N/R180L/S121R/S35A/S48T/T167S/V36M/W171L/Y33H/Y91S); assay: Surface plasmon resonance (SPR) binding to soluble HLA-B*4001; settings: for binding to other HLA-B molecules (SPR): HLA-B*4001: at therapeutic concentrations
HLA-B*5101 = HLA-B*5101 (Homo sapiens, UniProt P01889, A329T/A93T/A95T/C349S/D138N/D201E/D98Y/E187L/E204Q/E69T/G107R/I218V/K202T/L105A/L119W/N104I/Q94N/R106L/R155S/R180L/S101N/S121T/S35A/S48A/V306I/V36M/Y195H/Y91F); assay: Surface plasmon resonance (SPR) binding to soluble HLA-B*5101; settings: for binding to other HLA-B molecules (SPR): HLA-B*5101: at therapeutic concentrations

SMILES: NC(=O)N1c2ccccc2C=Cc2ccccc21 [CBZ, carbamazepine]
- covalent binding of drug to HLA-B*1502-bound peptides [1]: does not covalently bind to peptides
- response (specific lysis) of CBZ-specific CD8+ T cells to pulsed autologous B-LCL (autologous B-LCL cells): none of the CBZ-specific CD8^+ T cells responded
- presentation by B-LCL and activation (proliferation) of CBZ-specific CD8+ T cells [2]: able to be presented by both fixed and unfixed autologous B-LCL and activated
- binding to HLA-B*1501 (SPR) (HLA-B*1501; FIG. 6): neither CBZ nor its seven analogs (see the Compounds section above) binds
- binding to HLA-B*1503 (SPR) (HLA-B*1503; FIG. 6): neither CBZ nor its seven analogs (see the Compounds section above) binds
- binding to HLA-B*4001 (SPR) (HLA-B*4001; FIG. 6): did not bind
- binding to HLA-B*5101 (SPR) (HLA-B*5101; FIG. 6): did not bind

SMILES: NCC1(CC(=O)O)CCCCC1 [GAB, gabapentin]
- presentation by B-LCL and activation (proliferation) of CBZ-specific CD8+ T cells [2]: negative results
- binding to other HLA-B molecules (SPR): HLA-B*1501 (HLA-B*1501): did not bind
- binding to other HLA-B molecules (SPR): HLA-B*1503 (HLA-B*1503): did not bind
- binding to other HLA-B molecules (SPR): HLA-B*4001 (HLA-B*4001): did not bind
- binding to other HLA-B molecules (SPR): HLA-B*5101 (HLA-B*5101): did not bind

SMILES: CC[C@@H](C(N)=O)N1CCCC1=O [LEV, levetiracetam]
- binding to other HLA-B molecules (SPR): HLA-B*1501 (HLA-B*1501): did not bind
- binding to other HLA-B molecules (SPR): HLA-B*1503 (HLA-B*1503): did not bind
- binding to other HLA-B molecules (SPR): HLA-B*4001 (HLA-B*4001): did not bind
- binding to other HLA-B molecules (SPR): HLA-B*5101 (HLA-B*5101): did not bind

SMILES: CC1(C)O[C@@H]2[C@@H](CO[C@@]3(COS(N)(=O)=O)OC(C)(C)O[C@@H]23)O1 [TOP, topiramate]
- binding to other HLA-B molecules (SPR): HLA-B*1501 (HLA-B*1501): did not bind
- binding to other HLA-B molecules (SPR): HLA-B*1503 (HLA-B*1503): did not bind
- binding to other HLA-B molecules (SPR): HLA-B*4001 (HLA-B*4001): did not bind
- binding to other HLA-B molecules (SPR): HLA-B*5101 (HLA-B*5101): did not bind
